Consider 26 molecules from PMC6136712, “Ex vivo drug sensitivity testing as a means for drug repurposing in esophageal adenocarcinoma” (PLoS ONE, 2018).

In general, EC50 refers to the concentration at which the effect is half-maximal.

The structures appear in SMILES notation. Where a name gives a salt, the structure may show the parent alone.

The test system of this test is normal esophageal epithelium cell line EACN42. Briefly: FDA library drug sensitivity testing (CellTiter-Glo, 72 h), normal control cells. Type of test: cell-based, human. Also on record: key to DSS: modified drug sensitivity score (DSSmod) from dose-response curve fit. As to conditions: EACN42 normal esophageal cells, 72 h; for DSS: drug sensitivity score; for EC50: cell viability (ATP), max test concentration 10μM. Here is the method:
The normal esophageal epithelium cell line EACN42 was established in the Capobianco laboratory. The cell lines was derived from human normal epithelium and immortalized using HPV E6-E7.
Drug sensitivity testing (DST) was performed as described previously. […] Individual drugs were dissolved in 100% DMSO and tested in duplicates starting at a maximal test concentration of 10μM then over a 20,000-fold concentration range to generate dose response curves. Wells with assay buffer containing DMSO served as negative controls. 1000 exponentially growing cells were seeded per well in 384-well micro-titer plates and incubated in the presence of compounds in a humidified environment at 37°C and 5% CO2. After 72 hours of treatment, cell viability was assessed by measuring ATP levels via bioluminescence (CellTiter-Glo, Promega) according to manufactures recommendations. Interpretation of curve parameters was performed according to the modified drug sensitivity scoring (DSSmod) function developed by Swords et al. […] Given in this way, the sDSSmod incorporated information on each drug’s potency, efficacy, effect range and therapeutic index, making it possible to prioritize compounds over multiple parameters using a single numerical metric. […] All calculations and scoring routines are implemented in MatLab and additional curve fitting and statistical analyses are performed in GraphPad prism.
For orientation: Cellular ATP, detected with luciferase, serves as a proxy for viable cell number.

For `COc1cc2ncnc(Nc3ccc(F)c(Cl)c3)c2cc1OCCCN1CCOCC1` [Gefitinib], the DSS is 0.

As for `C[C@]12CC[C@H](O)CC1=CC[C@@H]1[C@@H]2CC[C@]2(C)C(c3cccnc3)=CC[C@@H]12` [Abiraterone], the DSS came to 0.

With `CNNCc1ccc(C(=O)NC(C)C)cc1` [Procarbazine HCl], the DSS was found to be 0.

For `Cc1cccc(N(C)C(=S)Oc2ccc3ccccc3c2)c1` [Tolnaftate], the DSS was determined as 0.

`CC/C(=C(\c1ccccc1)c1ccc(OCCN(C)C)cc1)c1ccccc1` [Tamoxifen Citrate]: the DSS is on record as 0.

`CCCCC1C(=O)N(c2ccccc2)N(c2ccccc2)C1=O` [Phenylbutazone] returned a DSS of 0.

Regarding `CC(C)(C#N)c1cc(Cn2cncn2)cc(C(C)(C)C#N)c1` [Anastrozole], the DSS stood at 0. For the setting “Homo sapiens”, this molecule came in with an EC50 of 1.59 µM.

`CCCS(=O)(=O)Nc1ccc(F)c(C(=O)c2c[nH]c3ncc(-c4ccc(Cl)cc4)cc23)c1F` [Vemurafenib] returned a DSS of 0. Under “Homo sapiens”, this molecule registered an EC50 of 0.05 µM.

Regarding `CCc1ccc(CCOc2ccc(CC3SC(=O)NC3=O)cc2)nc1` (stereo not shown) [Pioglitazone], the DSS was found to be 0.

`CC(C)C[C@H](NC(=O)[C@@H](O)[C@H](N)Cc1ccccc1)C(=O)O` [Ubenimex] came in with a DSS of 0.

Regarding `CC(C)Cn1cnc2c(N)nc3ccccc3c21` [Imiquimod], the DSS was determined as 0. For the setting “Homo sapiens”, this molecule yielded an EC50 of 2 µM.

Molecule `O=c1[nH]c(=O)n(C2CCCO2)cc1F` (stereo not shown) [Ftorafur] displayed a DSS of 0.

Take `COC(=O)N[C@H](C(=O)N[C@@H](Cc1ccccc1)[C@@H](O)CN(Cc1ccc(-c2ccccn2)cc1)NC(=O)[C@@H](NC(=O)OC)C(C)(C)C)C(C)(C)C.O=S(=O)(O)O` [Atazanavir sulfate]: the DSS is reported as 0.

`Nc1nc2c(c(=O)[nH]1)N(C=O)C(CNc1ccc(C(=O)N[C@@H](CCC(=O)O)C(=O)O)cc1)CN2` (stereo partly shown) [Leucovorin Calcium]: the DSS was determined as 0.04. Besides, the EC50 (Homo sapiens) stood at 0.09 µM.

The molecule `C[C@]12CC[C@@H]3c4ccc(O)cc4CC[C@H]3[C@@H]1CCC2=O` [Estrone] came in with a DSS of 0.

Molecule `C=C(c1ccc(C(=O)O)cc1)c1cc2c(cc1C)C(C)(C)CCC2(C)C` [Bexarotene] showed a DSS of 0.12. Where the note is “Homo sapiens”, this molecule had an EC50 of 4.29 µM.

Turning to `C=CCN1CC[C@]23c4c5ccc(O)c4O[C@H]2C(=O)CC[C@@]3(O)[C@H]1C5` [Naloxone HCl], the DSS stood at 0.

Regarding `Nc1cccc2c1CN(C1CCC(=O)NC1=O)C2=O` (stereo not shown) [Lenalidomide], the DSS worked out at 0.

Consider `Cl.N=C(N)NCCC[C@H](N)C(=O)O` [L-Arginine HCl], for which the midpoint of the response, the EC50, lay at 0.01 µM and the DSS is reported as 0.

Molecule `NCCC(O)(P(=O)([O-])O)P(=O)([O-])O.[Na+].[Na+]` [Pamidronate Disodium] came in with a DSS of 0.

Consider `CC(=O)O[C@@]12CO[C@@H]1C[C@H](O)[C@@]1(C)C(=O)[C@H](O)C3=C(C)[C@@H](O)C[C@@](O)([C@@H](OC(=O)c4ccccc4)[C@H]21)C3(C)C` [10-DAB], for which the EC50 was 5.48 µM and the DSS amounted to 0.01.

On to `CNC[C@H](O)c1ccc(O)c(O)c1` [Epinephrine bitartrate], for which the DSS came to 0.

On to `CS(=O)(=O)OCCCCOS(C)(=O)=O` [Busulfan], for which the DSS came out at 0.

`C=C1/C(=C\C=C2/CCC[C@]3(C)[C@@H]([C@H](C)/C=C/[C@H](C)C(C)C)CC[C@@H]23)C[C@@H](O)C[C@@H]1O` [Doxercalciferol] displayed a DSS of 0. Moreover, a half-maximal effect (Homo sapiens) (EC50) was put at 0.007 µM.

In the case of `Cl.Cl.Fc1ccc(C(c2ccc(F)cc2)N2CCN(C/C=C/c3ccccc3)CC2)cc1` [Flunarizine 2HCl], the DSS is 0.03.

As for `CC[C@H]1OC(=O)[C@H](C)[C@@H](O[C@H]2C[C@@](C)(OC)[C@@H](O)[C@H](C)O2)[C@H](C)[C@@H](O[C@@H]2O[C@H](C)C[C@H](N(C)C)[C@H]2O)[C@](C)(O)C[C@@H](C)CN(C)[C@H](C)[C@@H](O)[C@]1(C)O` [Azithromycin], the DSS is 0.
